Experimental data from PMC7561186, “Rational design of balanced dual-targeting antibiotics with limited resistance” (PLoS Biology, 2020).

Columns and labels:
Acinetobacter baumannii = assay: MIC, broth microdilution (CLSI); type: cell-based
Protocol: (§1) MICs were determined using a standard serial broth microdilution technique according to the CLSI guidelines. Briefly, bacterial strains were inoculated onto MHBII agar plates and were grown overnight at 37 °C. Next, 3 individual colonies from each strain were inoculated into 1 mL MHBII medium and propagated at 37 °C, 250 rpm overnight. In the cases of Enterococcus and Streptococcus sp., cells were plated to BHI agar plates, and BHI broth was used to determine MICs. […] Following dilutions, each well was seeded with 5×10^4 bacterial cells. All measurements were performed in 3 parallel replicates and to avoid possible edge effects in microwell plates, side rows (A and H) were filled with sterile medium. Following inoculations, plates were covered with lids and wrapped in polyethylene plastic bags to minimize evaporation but allow for O2 transfer. Plates were incubated at 37 °C under continuous shaking at 150 rpm for 18 hours. After incubation, OD600 of each well was measured using a BioTek Synergy 2 microplate reader.

Enterococcus faecalis = assay: MIC, broth microdilution (CLSI); type: cell-based
Protocol: as §1

Enterococcus faecium = assay: MIC, broth microdilution (CLSI); type: cell-based
Protocol: as §1

Escherichia coli = assay: MIC, broth microdilution (CLSI); type: cell-based; conditions: Escherichia coli ATCC 25922
Protocol: as §1

Haemophilus influenzae = assay: MIC, broth microdilution (CLSI); type: cell-based
Protocol: as §1

Helicobacter pylori = assay: MIC, broth microdilution (CLSI); type: cell-based; conditions: Helicobacter pylori ATCC 43504
Protocol: as §1

Klebsiella pneumoniae = assay: MIC, broth microdilution (CLSI); type: cell-based; conditions: Klebsiella pneumoniae ATCC 10031
Protocol: as §1

Listeria monocytogenes = assay: MIC, broth microdilution (CLSI); type: cell-based; conditions: Listeria monocytogenes ATCC 19111
Protocol: as §1

Neisseria gonorrhoeae = assay: MIC, broth microdilution (CLSI); type: cell-based
Protocol: as §1

Pseudomonas aeruginosa = assay: MIC, broth microdilution (CLSI); type: cell-based
Protocol: as §1

Shigella flexneri = assay: MIC, broth microdilution (CLSI); type: cell-based
Protocol: as §1

Staphylococcus aureus = assay: MIC, broth microdilution (CLSI); type: cell-based
Protocol: as §1

Streptococcus pneumoniae = assay: MIC, broth microdilution (CLSI); type: cell-based
Protocol: as §1

Streptococcus pyogenes = assay: MIC, broth microdilution (CLSI); type: cell-based
Protocol: as §1

[1] = tested on: S. aureus VISA ATCC 700699 GyrB R144I and GyrB I175T; assay: Second-step frequency-of-resistance assay in GyrB single mutants; type: cell-based
Protocol: To determine the spontaneous frequency-of-resistance, approximately 10^10 cells from stationary-phase MHBII broth cultures of S. aureus ATCC 700699 and S. aureus ATCC 43300 were plated to antibiotic-containing plates according to a standard protocol to determine frequency-of-resistance. Prior to plating, bacteria were grown overnight in MHBII medium at 37 °C, 250 rpm, collected by centrifugation, and washed once in equal volumes of MHBII broth. From this concentrated cell suspension (250 μL), approximately 10^10 cells were then plated to each MHBII agarose plates. Using agarose instead of agar reduced drug-adsorption and improved the performance of the assay. […] All experiments were performed in at least 3 replicates. Plates were grown at 37 °C for 72 hours. Total CFUs were determined simultaneously in each experiment by plating appropriate dilutions to antibiotic-free MHBII agar plates. Finally, resistance frequencies for each strain were calculated by dividing the number of colonies formed after a 72-hour incubation at 37 °C by the initial viable cell count.

[2] = tested on: S. aureus ATCC 700699 (VISA); assay: microbe, parasite or virus in culture; type: cell-based; conditions: for MIC: Staphylococcus aureus, read-out: MIC in adapted strains; for increase in MIC in adapted strains compared with the wild-type strain: lineages adapted to the same compound, S. aureus VISA
Protocol: Adaptive laboratory evolution experiments followed an established protocol for automated laboratory evolution and aimed to maximize the drug-resistance increment during a fixed time period. […] Experiments were conducted in 96-well plates, in MHBII medium, by utilizing a checkerboard layout to minimize and monitor cross-contamination. These 96-well deep-well plates (0.5 mL, polypropylene, V-bottom) were covered with sandwich covers (Enzyscreen BV) to ensure an optimal oxygen exchange rate and limit evaporation and were shaken at 150 rpm, 37 °C. […] Following cell transfer, each culture was allowed to grow for 48 hours. At each transfer, cell growth was monitored by measuring the OD600 in a BioTek Synergy 2 plate reader. […] Accordingly, only 1 of the 4 populations was retained for each independently evolving strain. This protocol was designed to avoid population extinction and to ensure that populations with the highest level of resistance are propagated further during adaptive evolution. […] Adaptation of populations was terminated after 20 transfers, i.e., 40 days. Following adaptation, cells from each final population were spread onto MHBII agar plates, and individual colonies were isolated. Next, one colony from each adapted line were subjected to capillary sequencing of gyrB and parE to assess their genotype.

MCF-7 cells = conditions: LDH assay
Protocol: (§2) Cytotoxicity of compounds on HepG2 and MCF-7 mammalian cell lines was determined by using a standard LDH assay. Briefly, HepG2 and MCF-7 cells were cultured in Eagle’s MEM medium (from Gibco) supplemented with 2 mM L-glutamine (Sigma), 100 U/mL penicillin (Sigma), and 100 μg/mL streptomycin (Sigma), and 10% FBS (Gibco) at 37 °C and under 5% CO2. Next, LDH assays were performed according to manufacturer instructions (Thermo Fisher Scientific, Massachusetts, USA). By using a CyQUANT LDH Cytotoxicity Assay Kit. Firstly, the cells were seeded in 96-well microtiter plates at 10^5 cells/mL (100 μL/well) and allowed to attach overnight. […] Lysis buffer (10 μL, Thermo Fisher Scientific) was then added to the maximal LDH activity control wells and incubated additional 45 minutes. The cell culture supernatant (50 μL) was then transferred to a new 96-well plate and mixed with 50 μL of the reaction mixture. After 30 minutes on room temperature, reactions were stopped with 50 μL of the Stop solution. Absorbance (490 nm and 680 nm) was measured with the automatic microplate reader Synergy 4 Hybrid Microplate Reader (BioTek, VT, USA). All experiments were performed in triplicates and repeated 3 times. Statistical significance (P < 0.05) was calculated with 2-tailed Welch’s t-test between treated groups and DMSO. The percentage of cytotoxicity was determined according to the following equation: %Cytotoxicity=(CompoundtreatedLDHactivity-SpontaneousLDHactivity/MaximumLDHactivity-SpontaneousLDHactivity)*100

in vitro = conditions: human
Protocol: as §2

[3] = ATCC19606, Acinetobacter baumannii ATCC 19606
[4] = Acinetobacter baumannii ATCC 17978
[5] = Acinetobacter baumannii ATCC 19606
[6] = Enterococcus faecalis ATCC 29212
[7] = Enterococcus faecium ATCC 19434
[8] = Enterococcus faecium ATCC 700221, VRE (VanA+)
[9] = Enterococcus faecium CCUG 56858, VRE (VanB+)
[10] = ATCC49247, Haemophilus influenzae ATCC 49247
[11] = Haemophilus influenzae ATCC 35056
[12] = Haemophilus influenzae ATCC 49247
[13] = CCUG57598, Neisseria gonorrhoeae CCUG 57598
[14] = Neisseria gonorrhoeae ATCC 700825
[15] = Neisseria gonorrhoeae CCUG 57598
[16] = ATCC27853, Pseudomonas aeruginosa ATCC 27853
[17] = Pseudomonas aeruginosa ATCC 27853
[18] = Pseudomonas aeruginosa B3-1811, Ciprofloxacin-R, Cephalosporin-R
[19] = Staphylococcus aureus (strain not given), MRSA (SCCmec type IV), Oxacillin-R, VSSA, Cephalosporin-R, Erythromycin-R
[20] = Staphylococcus aureus ATCC 29213
[21] = Staphylococcus aureus ATCC 33594, MSSA, VSSA
[22] = Staphylococcus aureus ATCC 43300, MRSA
[23] = Staphylococcus aureus ATCC 700699 (Mu50, NRS1), MRSA, VISA
[24] = Staphylococcus aureus CDC AR-BANK 0218, MRSA, VISA
[25] = Staphylococcus aureus ECL 2963646, MRSA, VRSA
[26] = Staphylococcus aureus NRS271, MRSA, Linezolid-R
[27] = Staphylococcus aureus USA300, ATCC BAA-1717, MRSA
[28] = Staphylococcus aureus USA400, BAA-1707, NRS123, MRSA
[29] = Staphylococcus aureus, ATCC 700699 / MRSA / NRS 1 / VISA, S. aureus ATCC 700699 (Mu50, NRS1), MRSA, VISA
[30] = Staphylococcus aureus, S. aureus ECL 2963646, MRSA, VRSA
[31] = Streptococcus pneumoniae ATCC 49619
[32] = Streptococcus pneumoniae ATCC 51916
[33] = Streptococcus pneumoniae ATCC 700673
[34] = Streptococcus pyogenes ATCC 14289
[35] = Streptococcus pyogenes ATCC 19615

Cc1[nH]c(C(=O)Nc2nc3ccc(C(=O)O)cc3s2)c(Cl)c1Cl [ULD1]
MIC (Acinetobacter baumannii; [3]): 2 mg/L
MIC (Acinetobacter baumannii; [4]): 4 mg/L
MIC (Acinetobacter baumannii; [5]): 2 mg/L
MIC (Enterococcus faecalis; [6]): 0.125 mg/L
MIC (Enterococcus faecalis; Enterococcus faecalis ATCC 51575, VRE (VanB+)): 0.0625 mg/L
MIC (Enterococcus faecium; [7]): 2 mg/L
MIC (Enterococcus faecium; [8]): 0.0625 mg/L
MIC (Enterococcus faecium; Enterococcus faecium BAA-2320, VRE (VanA+)): 0.25 mg/L
MIC (Enterococcus faecium; [9]): 2 mg/L
MIC (Escherichia coli): 4 mg/L
MIC (Haemophilus influenzae; [10]): ≤ 0.0312 mg/L
MIC (Haemophilus influenzae; [11]): 0.125 mg/L
MIC (Haemophilus influenzae; [12]): < 0.0312 mg/L
MIC (Helicobacter pylori): 4 mg/L
MIC (Klebsiella pneumoniae; ATCC10031): 1 mg/L
MIC (Klebsiella pneumoniae): 1 mg/L
MIC (Listeria monocytogenes; ATCC19111): 0.125 mg/L
MIC (Listeria monocytogenes): 0.125 mg/L
MIC (Neisseria gonorrhoeae; [13]): ≤ 0.0312 mg/L
MIC (Neisseria gonorrhoeae; [14]): < 0.0312 mg/L
MIC (Neisseria gonorrhoeae; [15]): < 0.0312 mg/L
MIC (Pseudomonas aeruginosa; [16]): 8 mg/L
MIC (Pseudomonas aeruginosa; [17]): 8 mg/L
MIC (Pseudomonas aeruginosa; [18]): > 64 mg/L
MIC (Shigella flexneri; Shigella flexneri 668): 16 mg/L
MIC (Shigella flexneri; Shigella flexneri HNCMB 20018): 8 mg/L
MIC (Staphylococcus aureus; [19]): 1 mg/L
MIC (Staphylococcus aureus; [20]): 1 mg/L
MIC (Staphylococcus aureus; [21]): 0.5 mg/L
MIC (Staphylococcus aureus; [22]): 0.125 mg/L
MIC (Staphylococcus aureus; [23]): 0.0625 mg/L
MIC (Staphylococcus aureus; [24]): 1 mg/L
MIC (Staphylococcus aureus; [25]): 0.125 mg/L
MIC (Staphylococcus aureus; [26]): 1 mg/L
MIC (Staphylococcus aureus; [27]): 0.5 mg/L
MIC (Staphylococcus aureus; [28]): 0.5 mg/L
MIC (Staphylococcus aureus; [29]): 0.0625 mg/L
MIC (Staphylococcus aureus; [30]): 0.125 mg/L
MIC (Streptococcus pneumoniae; [31]): 0.25 mg/L
MIC (Streptococcus pneumoniae; [32]): 0.5 mg/L
MIC (Streptococcus pneumoniae; [33]): 0.5 mg/L
MIC (Streptococcus pyogenes; [34]): 0.25 mg/L
MIC (Streptococcus pyogenes; [35]): 0.125 mg/L
Resistant colony number ([1]; VISA GyrB I175T, 4xMIC): lawn
Resistant colony number ([1]; VISA GyrB I175T, 8xMIC): lawn
Resistant colony number ([1]; VISA GyrB R144I, 4xMIC): lawn
Frequency-of-Resistance ([1]; VISA GyrB R144I, 12xMIC): 4.57E-08
Resistant colony number ([1]; VISA GyrB R144I, 12xMIC): 1288
Frequency-of-Resistance ([1]; VISA GyrB R144I, 16xMIC): 1.61E-08
Resistant colony number ([1]; VISA GyrB R144I, 16xMIC): 454
MIC [2]: 1 mg/L
increase in MIC in adapted strains compared with the wild-type strain [2]: 25 fold
Max. % inhibition at 100 µM (MCF-7 cells): Max. % inhibition at 100 µM: 0%
IC50 (in vitro): > 100 µM

Cc1[nH]c(C(=O)Nc2nc3c(OCc4ccccc4)cc(C(=O)O)cc3s2)c(Cl)c1Cl [ULD2]
MIC (Acinetobacter baumannii; [3]): 0.5 mg/L
MIC (Acinetobacter baumannii; [4]): 2 mg/L
MIC (Acinetobacter baumannii; [5]): 0.5 mg/L
MIC (Enterococcus faecalis; [6]): < 0.0312 mg/L
MIC (Enterococcus faecium; [7]): 0.5 mg/L
MIC (Enterococcus faecium; [8]): 0.0625 mg/L
MIC (Enterococcus faecium; [9]): 0.25 mg/L
MIC (Escherichia coli): 16 mg/L
MIC (Haemophilus influenzae; [10]): 0.125 mg/L
MIC (Haemophilus influenzae; [11]): 1 mg/L
MIC (Haemophilus influenzae; [12]): 0.125 mg/L
MIC (Helicobacter pylori): 4 mg/L
MIC (Klebsiella pneumoniae; ATCC10031): 4 mg/L
MIC (Klebsiella pneumoniae): 4 mg/L
MIC (Listeria monocytogenes; ATCC19111): 0.125 mg/L
MIC (Listeria monocytogenes): 0.125 mg/L
MIC (Neisseria gonorrhoeae; [13]): ≤ 0.0312 mg/L
MIC (Neisseria gonorrhoeae; [14]): < 0.0312 mg/L
MIC (Neisseria gonorrhoeae; [15]): < 0.0312 mg/L
MIC (Pseudomonas aeruginosa; [16]): 2 mg/L
MIC (Pseudomonas aeruginosa; [17]): 2 mg/L
MIC (Pseudomonas aeruginosa; [18]): 16 mg/L
MIC (Shigella flexneri; Shigella flexneri 668): 16 mg/L
MIC (Shigella flexneri; Shigella flexneri HNCMB 20018): 8 mg/L
MIC (Staphylococcus aureus; [19]): 0.063 mg/L
MIC (Staphylococcus aureus; [20]): 0.5 mg/L
MIC (Staphylococcus aureus; [21]): 0.125 mg/L
MIC (Staphylococcus aureus; [22]): 0.0625 mg/L
MIC (Staphylococcus aureus; [23]): < 0.0312 mg/L
MIC (Staphylococcus aureus; [24]): 0.125 mg/L
MIC (Staphylococcus aureus; [25]): < 0.0312 mg/L
MIC (Staphylococcus aureus; [26]): 0.25 mg/L
MIC (Staphylococcus aureus; [27]): 0.063 mg/L
MIC (Staphylococcus aureus; [28]): 0.125 mg/L
MIC (Staphylococcus aureus; [29]): ≤ 0.0312 mg/L
MIC (Staphylococcus aureus; [30]): ≤ 0.0312 mg/L
MIC (Streptococcus pneumoniae; [31]): 0.25 mg/L
MIC (Streptococcus pneumoniae; [32]): 0.25 mg/L
MIC (Streptococcus pneumoniae; [33]): 0.25 mg/L
MIC (Streptococcus pyogenes; [34]): 0.25 mg/L
MIC (Streptococcus pyogenes; [35]): 0.125 mg/L
Resistant colony number ([1]; VISA GyrB I175T, 4xMIC): lawn
Resistant colony number ([1]; VISA GyrB R144I, 4xMIC): lawn
Resistant colony number ([1]; VISA GyrB R144I, 8xMIC): lawn
Frequency-of-Resistance ([1]; VISA GyrB R144I, 12xMIC): 4.65E-08
Resistant colony number ([1]; VISA GyrB R144I, 12xMIC): 1312
Frequency-of-Resistance ([1]; VISA GyrB R144I, 16xMIC): 3.55E-11
Resistant colony number ([1]; VISA GyrB R144I, 16xMIC): 1
MIC [2]: 0.5 mg/L
increase in MIC in adapted strains compared with the wild-type strain [2]: 25 fold
Max. % inhibition at 100 µM (MCF-7 cells): Max. % inhibition at 100 µM: 8.43%
IC50 (in vitro): > 100 µM
